As usually defined, the solubility is the dissolved amount per volume that the medium holds.

Data on 3 molecules can be found in paper PMC9428149, “Tackling recalcitrant Pseudomonas aeruginosa infections in critical illness via anti-virulence monotherapy” (Nature Communications, 2022).

pIC50: −log10 of the molar value. Converted amounts (≈) assume the structure as drawn. “And” between values parts separate entries of the source, which are not always exact repeats. Equal values may be shown once. Read-outs that look alike come from different tables or passages of the source. A value given as a limit tells only on which side of the number the result lay.

The test system of series [1] is pyocyanin production in PA14. Description: Pyocyanin production assay. Conditions: Pseudomonas aeruginosa; for activity at 50 µM: PA14, 18 h, read-out: % Production Pyocyanin; for pIC50: PA14, read-out: IC50 pyocyanin production.
Protocol: The over-day culture was grown to OD600nm 1.5., diluted again at 1:10,000 in 5 mL LB and incubated with 10 μM of the test compound or the vehicle control for 18 hours at 37 °C and 200 rpm in an incubator shaker. After 18 h, 1 mL of culture was centrifuged for 2 min at 20.000 x g. The supernatant was transferred to a new tube, 200 μL of this were loaded in a flat-bottom 96-well plate, and the pyocyanin levels were quantified by measuring at OD690nm in the infinite F200 plate reader using the Magellan software (Tecan, Switzerland). […] The percent of pyocyanin was calculated compared to the PA14 culture grown in the absence of compounds.
To determine the IC50 of pyocyanin production, we followed the same process as above. […] Using GraphPad Prism Software, the IC50 curve was plotted against percent inhibition of pyocyanin production at each concentration using PA14 in the absence of compounds as a control.
The subject of series [2] is PA14 AT/P cells. Description: AT/P cells formation assay in PA14. The note with it: for inhibition at 10 µM: Pseudomonas aeruginosa, PA14, 24 h, read-out: inhibition of AT/P cells formation. Type of series: cell-based, Pseudomonas aeruginosa.
The test system of series [3] is pqsA promoter (PA14 PpqsA-GFPASV). As to the kind of experiment: pqsA-GFP reporter expression. The format is cell-based, Pseudomonas aeruginosa. Conditions: Pseudomonas aeruginosa; for activity at 50 µM: PA14, read-out: % Production pqsA-GFP.
For series [4], the system named is 16 MDR P. aeruginosa clinical isolates. As to the kind of experiment: Pyocyanin production in MDR clinical isolates. Conditions: Pseudomonas aeruginosa, 18 h, Control about 100, replicates.
Series [5] in a line: Solubility in iPBS pH 7.4 by HPLC. The format is physicochemical. The note with it: kinetic from dmso stock. On the procedure: Solubility of the 10 mM compounds dissolved in DMSO was tested in the isotonic phosphate buffer (iPBS) at pH 7.4 using High-Performance Liquid Chromatography (HPLC). For the preparation of iPBS phosphate-buffered saline tab (Sigma-Aldrich 08057-12Tab-F) is dissolved in 500 mL of deionized water and the final composition of the solution contains 10 mM PBS, 2.7 mM KCl, 140 mM NaCl and 0.05% Tween. A total 10 µL of the compound from a 10 mM stock solution in DMSO was added to the vial, and 190 µL of buffer was added to each vial and mixed with shaking at room temperature for 4 h. Thereafter the samples were filtered, and 160 µL of the sample was mixed with 40 µL of DMSO for the final injection. Ibuprofen (high solubility) and Progesterone (low Solubility) were used as standard compounds. Ammonium Acetate aqueous solution (50 mM, pH 7.4) and the acetonitrile were used as mobile phases A and B, respectively. The measurement of concentration was achieved by comparing of UV absorbance of the sample solution and the known standard solution following an HPLC separation using a generic fast gradient method. The solubility of each compound is expressed by the ratio of compound amount in the sample test solution to the amount of compound in the standard solution.

The subject of series [6] is mvfR mutant constitutively expressing the pqsABCDE operon. Type of series: cell-based. Conditions: Pseudomonas aeruginosa, control about 100, single replicates (Figure 4a).
Series [7] relates to PA14 isogenic mutant ΔmvfR AT/P cells. As to the kind of experiment: AT/P cell formation in ΔmvfR mutant (off-target). The note with it: Pseudomonas aeruginosa, PA14, 24 h, read-out: AT/P cell formation, ΔmvfR + compound; PA14 about 100; single replicates (Figure 4b).
Protocol: Cells were grown in the presence of 10 μg mL^−1 meropenem, with or without 10 µM of the compounds for 24 h. Values were normalized to cells grown for 4 h in the absence of antibiotics and compounds. The ∆mvfR cells grown with antibiotics and vehicles were considered control, and the percentage values were calculated compared to control. c Biofilm formation of mutant ∆mvfR cells with or without compound. […] The number of biological replicates for each compound and strain is depicted in the graph. The error bars denote ±SEM.
The AT/P cell formation assay was performed according to the method previously described in Starkey et al., 2014 (persister cell assay). The over-day culture was incubated at 37 °C with shaking at 200 rpm until the culture OD600nm was 3.0. The culture was then diluted at 1:100 and grown in the same conditions for 4 h. After 4 h, 200 µL were collected, and serial dilutions were plated on LB agar plates for CFU quantification (as normalizers). The remainder of the culture was treated with meropenem to a final concentration of 100 × MIC (Minimum Inhibitory Concentration; 10 mg L^−1) and compounds at a final concentration of 10 µM. After 24 h, culture aliquots were 10-fold serially diluted in LB broth and plated on LB agar for CFU quantification. The AT/P fraction was determined as the normalizers (pre-antibiotic) ratio divided by the AT/P fraction (24 h post-antibiotic)[22].
The subject of series [8] is ΔmvfR biofilm. As to the kind of experiment: Biofilm formation of ΔmvfR mutant (off-target). The note with it: Pseudomonas aeruginosa, PA14, 24 h, read-out: Biofilm formation, ΔmvfR + compound; PA14 about 100; single replicates (Figure 4c).
Series [9] concerns MvfR-regulated small molecules in PA14. As to the kind of experiment: Production of HAQs, 2-AA, DHQ and AA in PA14 cultures (LC-MS). The note with it: Pseudomonas aeruginosa.
For series [10], the system named is PA14 biofilm. As to the kind of experiment: Biofilm formation in 96-well plates, PA14. The note with it: PA14, 10 µM, 24 h. Type of series: cell-based, Pseudomonas aeruginosa.
For series [11], the target named is MvfR binding to the pqsA promoter (Pseudomonas aeruginosa, UniProt Q9I4X0). Type of series: cell-based. The note with it: D88 −, PQS +; Figure 5c; replicates.
Chain of MvfR binding to the pqsA promoter (Q9I4X0 whole entry, looked up): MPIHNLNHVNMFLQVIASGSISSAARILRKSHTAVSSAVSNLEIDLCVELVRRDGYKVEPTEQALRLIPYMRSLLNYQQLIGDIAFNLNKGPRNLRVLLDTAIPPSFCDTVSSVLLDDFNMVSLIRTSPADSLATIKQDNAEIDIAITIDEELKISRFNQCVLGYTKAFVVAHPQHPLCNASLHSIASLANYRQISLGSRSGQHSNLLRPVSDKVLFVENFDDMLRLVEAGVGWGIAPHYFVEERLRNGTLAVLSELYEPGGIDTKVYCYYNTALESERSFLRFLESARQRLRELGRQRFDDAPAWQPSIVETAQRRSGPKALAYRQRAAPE
Where [12] appears, read: read-out: Pyocyanin production relative to Control, clinical isolate LGR-4325.
Setting [13] is: read-out: Pyocyanin production relative to Control, clinical isolate LGR-4326.
[14] abbreviates: read-out: Pyocyanin production relative to Control, clinical isolate LGR-4327.
[15] abbreviates: read-out: Pyocyanin production relative to Control, clinical isolate LGR-4328.
Setting [16] is: read-out: Pyocyanin production relative to Control, clinical isolate LGR-4330.
Where [17] appears, read: read-out: Pyocyanin production relative to Control, clinical isolate LGR-4331 (first section, r117).
Where [18] appears, read: read-out: Pyocyanin production relative to Control, clinical isolate LGR-4331 (second section, r140).
The mark [19] stands for this setting: read-out: Pyocyanin production relative to Control, clinical isolate LGR-4333.
Setting [20] is: read-out: Pyocyanin production relative to Control, clinical isolate LGR-4343.
Setting [21] is: read-out: Pyocyanin production relative to Control, clinical isolate LGR-4344.
Where [22] appears, read: read-out: Pyocyanin production relative to Control, clinical isolate LGR-4348.
[23] abbreviates: read-out: Pyocyanin production relative to Control, clinical isolate LGR-4356.
The mark [24] stands for this setting: read-out: Pyocyanin production relative to Control, clinical isolate LGR-4362.
Setting [25] is: read-out: Pyocyanin production relative to Control, clinical isolate LGR-4363.
The mark [26] stands for this setting: read-out: Pyocyanin production relative to Control, clinical isolate LGR-4364 (first section, r326).
[27] abbreviates: read-out: Pyocyanin production relative to Control, clinical isolate LGR-4364 (second section, r349).
[28] abbreviates: read-out: DHQ, ΔmvfR-pqsABCD strain.
[29] abbreviates: read-out: HQNO, ΔmvfR-pqsABCD strain.
[30] abbreviates: read-out: PQS, ΔmvfR-pqsABCD strain.

Consider `N#Cc1ccc(NC(=O)CC(=O)Nc2ccc(C#N)c(Cl)c2)cc1` [D95], for which the activity at 50 µM in series [1] worked out at 4%; in series [3], 6%; in series [6] (setting [28]), 95.2%; in [6] (setting [29]), 97.2%; in series [6] (setting [30]), 100%; in [9] (PA14, read-out: % Production 2-AA), 11%. Besides, the activity at 50 µM in [9] (PA14, read-out: % Production AA) turned out to be 774%; in series [9] (PA14, read-out: % Production DHQ) it was 13%; in series [9] (PA14, read-out: % Production HHQ), 5%; in series [9] (PA14, read-out: % Production HQNO), 30%; in series [9] (PA14, read-out: % Production PQS), 10%. Further, the pIC50 in [1] was 6.05; in series [3] (PA14, read-out: IC50 pqsA-GFP expression, PA14, 13 concentrations), 5.96. For the same molecule, the inhibition at 10 µM in series [2] was no less than 51%. Further, the activity at 10 µM stood at 11.5% in series [4] (setting [12]); 6.63% in series [4] (setting [13]); 14.1% in series [4] (setting [14]); 16.3% in series [4] (setting [15]); 19.6% in [4] (setting [16]); 14.8% in series [4] (setting [17]). The activity at 10 µM in [4] (setting [18]) was found to be 7.46%; in series [4] (setting [19]), 9.75%; in series [4] (setting [20]), 12.1%; in series [4] (setting [21]), 14.6%; in series [4] (setting [22]) it was 19.2%; in series [4] (setting [23]) it was 7.92%. The activity at 10 µM in [4] (setting [24]) came to 30.4%; in [4] (setting [25]) it was 9.55%; in [4] (setting [26]), 8.11%; in [4] (setting [27]), 13.7%; in series [7] it was 35.3%; in [8], 17.7%. Also, the concentration in solution in [5] (pH 7.4, aqueous with cosolvent or surfactant or cyclodextrin) (solubility at 4 h) was 1.7e-05 M (≈ 5.76 µg/mL). In addition, the inhibition at 50 µM in [9] (PA14, read-out: HHQ production inhibition) was in the range of 89 to 99%; in [9] (PA14, read-out: HQNO production inhibition), 40 to 92%; in series [9] (PA14, read-out: PQS production inhibition) it was 76 to 97%; in [9] (PA14, read-out: inhibition of 2-AA production), 82 to 95%; in series [9] (PA14, read-out: inhibition of DHQ production), 82 to 96%.

`O=C(Nc1ccc(Oc2ccccc2)cc1)C(F)C(=O)Nc1ccc(C(F)(F)F)cc1` (stereo not drawn) [D100]: the activity at 50 µM in [1] is 7%; in series [3] it was 2%; in [6] (read-out: 2-AA, ΔmvfR-pqsABCD strain), 97.5%; in series [6] (setting [28]) it was 92.5%; in [6] (read-out: HHQ, ΔmvfR-pqsABCD strain) it was 104%; in [6] (setting [29]), 98.7%. In series [6] (setting [30]), the activity at 50 µM is 81.3%. For the same molecule, in [1], the pIC50 is 6.42. Besides, in [2] (PA14, 10 μg mL^−1 meropenem, 10 µM compound, 24 h, control PA14 + vehicle), the “AT/P cells formation, percentage of control (single replicates)” value is 18.86% and 47.86% and 24.02%. For the same molecule, in series [2], the inhibition at 10 µM was no less than 51%. In addition, the “biofilm formation inhibition rate” value in series [10] was “highest inhibition”. The activity at 10 µM stood at 13.3% in series [4] (setting [12]); 19.1% in series [4] (setting [13]); 21.7% in series [4] (setting [14]); 31.1% in series [4] (setting [15]); 31.1% in [4] (setting [16]); 23.5% in [4] (setting [17]). For the same molecule, the activity at 10 µM in series [4] (setting [18]) was 12%; in series [4] (setting [19]), 15.4%; in series [4] (setting [20]), 13.4%; in series [4] (setting [21]), 16.3%; in [4] (setting [22]) it was 26.1%; in series [4] (setting [23]), 16.4%. In addition, the activity at 10 µM in [4] (setting [24]) worked out at 33%; in series [4] (setting [25]) it was 10.2%; in series [4] (setting [26]) it was 13.3%; in series [4] (setting [27]), 10.6%; in series [7], 42.2%; in series [8], 39.3%. The solubility at 4 h in [5] (isotonic phosphate buffer (iPBS), aqueous with cosolvent or surfactant or cyclodextrin, iPBS pH 7.4, HPLC, read-out: Solubility (M) in PBS) is 5e-06 M (≈ 2.16 µg/mL).

Regarding `CCCCCCCc1nc2ccccc2c(O)c1O` [PQS], the “MvfR binding to the pqsA promoter (ChIP-qPCR)” value in series [11] was 12.2267 and 11.783 and 5.7525.
